This is an account of results in patent US10392383B2, “3-(1H-benzo[d]imidazol-2-yl)-1H-pyrazolo[4,3-b]pyridines and therapeutic uses thereof” (Samumed, LLC, priority 2015, dated 2019).

Holding throughout (type): cell-based
Experiment [1] relates to Wnt activity (Sp5-Luc reporter, Wnt-responsive promoter) in SW480 colon carcinoma cells. Kind of experiment: Wnt activity screening assay: Sp5-Luc reporter gene assay in SW480 cells. Particulars: Homo sapiens, overnight incubation, 10-point curve starting from 10 μM. The gist of the method:
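Wnt-driven firefly luciferase in SW480 colon carcinoma cells reports pathway activity after overnight compound exposure (10 μM top concentration, 3-fold steps). Signal is normalized to DMSO controls.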
Background: Reporter assays use an easily measured gene product as a stand-in for the process of interest.

The subject of another experiment is SW480 colon cancer cells. In words: Cell viability assay (CellTiter-Blue) in SW480 cells. The note with it: Homo sapiens, 96 h, four days; for EC50: CellTiter-Blue, 10 μM to 0.0045 μM; for inhibition at 10 µM: read-out: percent inhibition at 10 μM (given for EC50 of >10 μM). The gist of the method: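 Approximately 2×10^3 SW480 cells per well are seeded with compound (8 points, threefold steps, top 10 μM) and incubated four days at 37 °C. CellTiter-Blue is then added for about 3 h and fluorescence read. Non-linear regression gives EC50; for values beyond 10 μM, percent inhibition at that concentration is listed.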
On the technique in general: Alamar Blue is a resazurin reagent that responds to reducing activity.

Experiment [2] concerns primary human fibroblasts derived from IPF patients (LL29 cells) treated with TGF-β1. In words: Inhibition of the fibrotic process: αSMA staining in TGF-β1-treated LL29 fibroblasts. Particulars: Fibroblast; for EC50: 96 h, LL29 fibroblasts treated with TGF-β1 (20 ng/mL), 4 days, Table 4; for inhibition at 10 µM: LL29 fibroblasts treated with TGF-β1, Table 4, read-out: percent inhibition at 10 μM (given in parentheses for EC50 >10 μM). The gist of the method:
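IPF-derived LL29 fibroblasts in F12 with 1% FBS dosed with compound (11-point, 10 μM to 1.87 nM, 0.1% DMSO), then 20 ng/mL TGF-β1 after 1 h, and cultured 4 days at 37 °C. αSMA-positive cell fraction imaged after excluding SYTOX-positive cells, normalized to TGF-β1/DMSO wells; EC50 by non-linear regression, % inhibition at 10 μM if EC50 >10 μM.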

A word on the EC50: it is the concentration needed to bring the measured effect to its halfway point. A higher EC50 goes with a less potent agent. As for `CCC(=O)Nc1cncc(-c2ccc3[nH]nc(-c4nc5c(-c6cccc(F)c6)cccc5[nH]4)c3n2)c1` [Compound 1, N-(5-(3-(4-(3-Fluorophenyl)-1H-benzo[d]imidazol-2-yl)-1H-pyrazolo[4,3-b]pyridin-5-yl)pyridin-3-yl)propionamide], the EC50 in experiment [1] was 1360 nM; with SW480 colon cancer cells it was 2740 nM; in experiment [2] it was 1180 nM.

The term inhibition denotes the share of the control response that was lost under treatment. Regarding `CC(C)CC(=O)Nc1cncc(-c2ccc3[nH]nc(-c4nc5c(-c6cccc(F)c6)cccc5[nH]4)c3n2)c1` [Compound 2, N-(5-(3-(4-(3-Fluorophenyl)-1H-benzo[d]imidazol-2-yl)-1H-pyrazolo[4,3-b]pyridin-5-yl)pyridin-3-yl)-3-methylbutanamide], the concentration giving a half-maximal response (EC50) in experiment [1] is 1160 nM; in the experiment with SW480 colon cancer cells, greater than 10000 nM; in experiment [2], 9860 nM. Also, in the experiment with SW480 colon cancer cells, the inhibition at 10 µM came out at 14.2%.

On to `CN(C)c1cncc(-c2ccc3[nH]nc(-c4nc5c(-c6cccc(F)c6)cccc5[nH]4)c3n2)c1` [Compound 7, 5-(3-(4-(3-fluorophenyl)-1H-benzo[d]imidazol-2-yl)-1H-pyrazolo[4,3-b]pyridin-5-yl)-N,N-dimethylpyridin-3-amine], for which the results for the EC50 (in experiment [1]; with SW480 colon cancer cells; in experiment [2]) were 779 nM, 2780 nM and 1440 nM, respectively.

For the molecule `CN(C)Cc1cncc(-c2ccc3[nH]nc(-c4nc5c(-c6cccc(F)c6)cccc5[nH]4)c3n2)c1` [Compound 13, 1-(5-(3-(4-(3-Fluorophenyl)-1H-benzo[d]imidazol-2-yl)-1H-pyrazolo[4,3-b]pyridin-5-yl)pyridin-3-yl)-N,N-dimethylmethanamine], the half-maximal effective concentration (EC50) in experiment [1] was 637 nM; with SW480 colon cancer cells it was 466 nM; in experiment [2] it was 616 nM.

Regarding `Fc1cccc(-c2cccc3[nH]c(-c4n[nH]c5ccc(-c6ccncc6)nc45)nc23)c1` [Compound 18, 3-(4-(3-Fluorophenyl)-1H-benzo[d]imidazol-2-yl)-5-(pyridin-4-yl)-1H-pyrazolo[4,3-b]pyridine], the EC50 was 1320 nM in experiment [1], greater than 10000 nM in the experiment with SW480 colon cancer cells and 231 nM in experiment [2]. Moreover, the inhibition at 10 µM with SW480 colon cancer cells worked out at 0%.

For `O=C(Nc1cncc(-c2ccc3[nH]nc(-c4nc5c(-c6cccc(F)c6)cccc5[nH]4)c3n2)c1)C1CC1` [Compound 20, N-(5-(3-(4-(3-Fluorophenyl)-1H-benzo[d]imidazol-2-yl)-1H-pyrazolo[4,3-b]pyridin-5-yl)pyridin-3-yl)cyclopropanecarboxamide], the EC50 in experiment [1] is 1080 nM; with SW480 colon cancer cells, 4240 nM; in experiment [2], 1200 nM.

In the case of `O=C(Nc1cncc(-c2ccc3[nH]nc(-c4nc5c(N6CCCCC6)cccc5[nH]4)c3n2)c1)C1CC1` [Compound 188, N-(5-(3-(4-(Piperidin-1-yl)-1H-benzo[d]imidazol-2-yl)-1H-pyrazolo[4,3-b]pyridin-5-yl)pyridin-3-yl)cyclopropanecarboxamide], the EC50 is 3730 nM in experiment [1], 4540 nM in the experiment on SW480 colon cancer cells and greater than 10000 nM in experiment [2]. Besides, the inhibition at 10 µM in experiment [2] amounted to 49.2%.

Consider `FC1(F)CCN(Cc2cncc(-c3ccc4[nH]nc(-c5nc6c(N7CCCCC7)cccc6[nH]5)c4n3)c2)C1` [Compound 194, 5-(5-((3,3-Difluoropyrrolidin-1-yl)methyl)pyridin-3-yl)-3-(4-(piperidin-1-yl)-1H-benzo[d]imidazol-2-yl)-1H-pyrazolo[4,3-b]pyridine], for which the 50% effective concentration (EC50) in experiment [1] was 3910 nM; in the experiment on SW480 colon cancer cells, greater than 10000 nM; in experiment [2], 6660 nM. For the same molecule, the inhibition at 10 µM with SW480 colon cancer cells is 25.4%.

Take `Cc1cn(-c2cccc3[nH]c(-c4n[nH]c5ccc(-c6cncc(NC(=O)CC(C)C)c6)nc45)nc23)cn1` [Compound 198, 3-Methyl-N-(5-(3-(4-(4-methyl-1H-imidazol-1-yl)-1H-benzo[d]imidazol-2-yl)-1H-pyrazolo[4,3-b]pyridin-5-yl)pyridin-3-yl)butanamide]: the 50% effective concentration (EC50) in experiment [1] was 1040 nM; in the experiment with SW480 colon cancer cells, 1220 nM; in experiment [2], 1890 nM.

With `Cc1cn(-c2cccc3[nH]c(-c4n[nH]c5ccc(-c6cncc(NC(=O)C(C)(C)C)c6)nc45)nc23)cn1` [Compound 204, N-(5-(3-(4-(4-Methyl-1H-imidazol-1-yl)-1H-benzo[d]imidazol-2-yl)-1H-pyrazolo[4,3-b]pyridin-5-yl)pyridin-3-yl)pivalamide], the EC50 in experiment [1] came to 1240 nM; with SW480 colon cancer cells it was 1510 nM; in experiment [2], 997 nM.

Turning to `Cc1cn(-c2cccc3[nH]c(-c4n[nH]c5ccc(-c6cncc(CN7CCCC7)c6)nc45)nc23)cn1` [Compound 210, 3-(4-(4-Methyl-1H-imidazol-1-yl)-1H-benzo[d]imidazol-2-yl)-5-(5-(pyrrolidin-1-ylmethyl)pyridin-3-yl)-1H-pyrazolo[4,3-b]pyridine], the figures for the EC50 (in experiment [1]; in the experiment with SW480 colon cancer cells; in experiment [2]) were 4110 nM, 8470 nM and greater than 10000 nM, respectively. The inhibition at 10 µM in experiment [2] was determined as 30.4%.

Take `Cc1cn(-c2cccc3[nH]c(-c4n[nH]c5ccc(-c6cncc(NC(=O)C7CCC7)c6)nc45)nc23)cn1` [Compound 217, N-(5-(3-(4-(4-Methyl-1H-imidazol-1-yl)-1H-benzo[d]imidazol-2-yl)-1H-pyrazolo[4,3-b]pyridin-5-yl)pyridin-3-yl)cyclobutanecarboxamide]: the EC50 in experiment [1] is 2840 nM; with SW480 colon cancer cells it was 3500 nM; in experiment [2], greater than 10000 nM. The inhibition at 10 µM in experiment [2] came to 0%.

`CN1CCN(c2cccc3[nH]c(-c4n[nH]c5ccc(-c6cncc(NC(=O)C7CCCC7)c6)nc45)nc23)CC1` [Compound 246, N-(5-(3-(4-(4-Methylpiperazin-1-yl)-1H-benzo[d]imidazol-2-yl)-1H-pyrazolo [4,3-b]pyridin-5-yl)pyridin-3-yl)cyclopentanecarboxamide]: the concentration for a half-maximal effect (EC50) in experiment [1] is 8530 nM; in the experiment with SW480 colon cancer cells it was 8360 nM; in experiment [2], 4940 nM.

As for `c1cncc(-c2ccc3[nH]nc(-c4nc5ccccc5[nH]4)c3n2)c1` [Compound 256, 3-(1H-Benzo[d]imidazol-2-yl)-5-(pyridin-3-yl)-1H-pyrazolo[4,3-b]pyridine], the results for the EC50 (in experiment [1]; in the experiment on SW480 colon cancer cells; in experiment [2]) were 5480 nM, 8840 nM and greater than 10000 nM, respectively. In addition, the inhibition at 10 µM in experiment [2] was found to be 0%.

In the case of `CC(C)(C)CC(=O)Nc1cncc(-c2ccc3[nH]nc(-c4nc5ccccc5[nH]4)c3n2)c1` [Compound 268, N-(5-(3-(1H-Benzo[d]imidazol-2-yl)-1H-pyrazolo[4,3-b]pyridin-5-yl)pyridin-3-yl)-3,3-dimethylbutanamide], the EC50 in experiment [1] was found to be 3550 nM; in the experiment on SW480 colon cancer cells, 6950 nM; in experiment [2] it was 2380 nM.

`O=C(Nc1cncc(-c2ccc3[nH]nc(-c4nc5ccccc5[nH]4)c3n2)c1)C1CCCCC1` [Compound 275, N-(5-(3-(1H-Benzo[d]imidazol-2-yl)-1H-pyrazolo[4,3-b]pyridin-5-yl)pyridin-3-yl) cyclohexanecarboxamide]: the EC50 in experiment [1] turned out to be 1980 nM; in the experiment on SW480 colon cancer cells, 593 nM; in experiment [2], 80.8 nM.

For `c1ccc(-c2ccc3[nH]nc(-c4nc5ccccc5[nH]4)c3n2)nc1` [Compound 280, 3-(1H-Benzo[d]imidazol-2-yl)-5-(pyridin-2-yl)-1H-pyrazolo[4,3-b]pyridine], the EC50 in experiment [1] came out at 611 nM; in the experiment on SW480 colon cancer cells, 1890 nM; in experiment [2], 4740 nM.

On to `Cc1ccncc1-c1ccc2[nH]nc(-c3nc4c(-c5ccsc5)cccc4[nH]3)c2n1` [Compound 285, 5-(4-Methylpyridin-3-yl)-3-(4-(thiophen-3-yl)-1H-benzo[d]imidazol-2-yl)-1H-pyrazolo[4,3-b]pyridine], for which the EC50 is 986 nM in experiment [1], 5400 nM in the experiment with SW480 colon cancer cells and greater than 10000 nM in experiment [2]. The inhibition at 10 µM in experiment [2] came out at 0%.

For `CCCC(=O)Nc1cncc(-c2ccc3[nH]nc(-c4nc5c(-c6ccsc6)cccc5[nH]4)c3n2)c1` [Compound 297, N-(5-(3-(4-(Thiophen-3-yl)-1H-benzo[d]imidazol-2-yl)-1H-pyrazolo[4,3-b]pyridin-5-yl)pyridin-3-yl)butyramide], the EC50 is 643 nM in experiment [1], 8920 nM in the experiment on SW480 colon cancer cells and 1300 nM in experiment [2].

`c1ccc(CNCc2cncc(-c3ccc4[nH]nc(-c5nc6c(-c7ccsc7)cccc6[nH]5)c4n3)c2)cc1` [Compound 304, N-Benzyl-1-(5-(3-(4-(thiophen-3-yl)-1H-benzo[d]imidazol-2-yl)-1H-pyrazolo[4,3-b]pyridin-5-yl)pyridin-3-yl)methanamine]: the EC50 in experiment [1] worked out at 2760 nM; in the experiment on SW480 colon cancer cells, 3460 nM; in experiment [2], 2200 nM.

With `FC1(F)CCN(Cc2cncc(-c3ccc4[nH]nc(-c5nc6c(-c7ccsc7)cccc6[nH]5)c4n3)c2)C1` [Compound 306, 5-(5-((3,3-Difluoropyrrolidin-1-yl)methyl)pyridin-3-yl)-3-(4-(thiophen-3-yl)-1H-benzo[d]imidazol-2-yl)-1H-pyrazolo[4,3-b]pyridine], the EC50 in experiment [1] was found to be 1650 nM; with SW480 colon cancer cells, 4790 nM; in experiment [2], 1230 nM.
